# Results taken from ChEMBL document CHEMBL3885861, “Open TG-GATES”.
# Organism: Rattus norvegicus
# Experiment: Open TG-GATES - Regimen: Single
# Format: toxicity, organism-based, Sprague-Dawley
# Set-up: regimen Single, gender Male, age 6 weeks
# Conditions: in vivo, po, route gavage; for APTT / Bas / Eos / Fbg / Hb / Ht / Lym / MCH / MCHC / MCV / Mono / Neu / PT / Plat / Ret / WBC: tissue Blood; for KIDNEY_L / KIDNEY_R / KIDNEY_TOTAL: tissue Kidney; for LIVER: tissue Liver; for ALP / ALT / AST / BUN / CRE / Ca / DBIL / GLC / IP / K / LDH / Na / PL / RALB / TBIL / TC / TG / TP / gamma-GTP: tissue Plasma
# [1] = 30 mg/kg, 3 h, dose level Middle
# [2] = 30 mg/kg, 6 h, dose level Middle
# [3] = 30 mg/kg, 9 h, dose level Middle
# [4] = 30 mg/kg, 24 h, dose level Middle
# [5] = 100 mg/kg, 3 h, dose level High
# [6] = 100 mg/kg, 6 h, dose level High
# [7] = 100 mg/kg, 9 h, dose level High
# [8] = 100 mg/kg, 24 h, dose level High
structure (smiles),measurement,setting,value
CN(C)CCCN1c2ccccc2CCc2ccc(Cl)cc21 [CLOMIPRAMINE],APTT,[1],16.4 s
same,Bas,[1],0.2%
same,Eos,[1],0.6%
same,Fbg,[1],254 mg/dL
same,Hb,[1],14.2 g/dL
same,Ht,[1],43.6%
same,Lym,[1],71.2%
same,MCH,[1],21 pg
same,MCHC,[1],32.6%
same,MCV,[1],64.5 fL
same,Mono,[1],2.8%
same,Neu,[1],24%
same,PT,[1],13.6 s
same,Plat,[1],115.5 x10_4/uL
same,Ret,[1],7.9%
same,WBC,[1],95.4 x10_2/uL
same,KIDNEY_L,[1],1 g
same,KIDNEY_R,[1],1 g
same,KIDNEY_TOTAL,[1],1.9 g
same,LIVER,[1],9.7 g
same,ALP,[1],1675.2 IU/L
same,ALT,[1],38.4 IU/L
same,AST,[1],77.8 IU/L
same,BUN,[1],9.8 mg/dL
same,CRE,[1],0.2 mg/dL
same,Ca,[1],10.8 mg/dL
same,DBIL,[1],0.016 mg/dL
same,GLC,[1],187.8 mg/dL
same,IP,[1],9.6 mg/dL
same,K,[1],4 meq/L
same,LDH,[1],96 IU/L
same,Na,[1],141 meq/L
same,PL,[1],145.4 mg/dL
same,RALB,[1],2.5 g/dL
same,TBIL,[1],0.062 mg/dL
same,TC,[1],75.2 mg/dL
same,TG,[1],78.8 mg/dL
same,TP,[1],5.2 g/dL
same,gamma-GTP,[1],1 IU/L
same,TERMINAL_BW,[2],214.2 g
same,APTT,[2],15.9 s
same,Bas,[2],0.2%
same,Eos,[2],0.8%
same,Fbg,[2],241.2 mg/dL
same,Hb,[2],14.1 g/dL
same,Ht,[2],43.9%
same,Lym,[2],78.2%
same,MCH,[2],20.2 pg
same,MCHC,[2],32.2%
same,MCV,[2],62.8 fL
same,Mono,[2],2.6%
same,Neu,[2],17.2%
same,PT,[2],13.7 s
same,Plat,[2],114.1 x10_4/uL
same,Ret,[2],7.6%
same,WBC,[2],82.3 x10_2/uL
same,KIDNEY_L,[2],1 g
same,KIDNEY_R,[2],1 g
same,KIDNEY_TOTAL,[2],2 g
same,LIVER,[2],9.2 g
same,ALP,[2],1672.6 IU/L
same,ALT,[2],39.2 IU/L
same,AST,[2],73.8 IU/L
same,BUN,[2],7.2 mg/dL
same,CRE,[2],0.2 mg/dL
same,DBIL,[2],0.02 mg/dL
same,GLC,[2],186.4 mg/dL
same,IP,[2],9.9 mg/dL
same,K,[2],4.2 meq/L
same,LDH,[2],75.4 IU/L
same,Na,[2],141.4 meq/L
same,PL,[2],134.6 mg/dL
same,RALB,[2],2.5 g/dL
same,TBIL,[2],0.068 mg/dL
same,TC,[2],74.4 mg/dL
same,TG,[2],55.8 mg/dL
same,TP,[2],5.3 g/dL
same,gamma-GTP,[2],1.2 IU/L
same,TERMINAL_BW,[3],211.3 g
same,APTT,[3],17.1 s
same,Bas,[3],0%
same,Eos,[3],1.2%
same,Fbg,[3],273.6 mg/dL
same,Hb,[3],13.9 g/dL
same,Ht,[3],42.6%
same,Lym,[3],77.8%
same,MCH,[3],20.4 pg
same,MCHC,[3],32.6%
same,MCV,[3],62.6 fL
same,Mono,[3],2.2%
same,Neu,[3],17.8%
same,PT,[3],13.8 s
same,Plat,[3],124.6 x10_4/uL
same,Ret,[3],7.7%
same,WBC,[3],83.2 x10_2/uL
same,KIDNEY_L,[3],1 g
same,KIDNEY_R,[3],0.9 g
same,KIDNEY_TOTAL,[3],1.9 g
same,LIVER,[3],8.5 g
same,ALP,[3],1468.8 IU/L
same,ALT,[3],36.2 IU/L
same,AST,[3],71.8 IU/L
same,BUN,[3],7.4 mg/dL
same,CRE,[3],0.2 mg/dL
same,Ca,[3],10.5 mg/dL
same,DBIL,[3],0.024 mg/dL
same,GLC,[3],174 mg/dL
same,IP,[3],10.5 mg/dL
same,K,[3],4.1 meq/L
same,LDH,[3],86.4 IU/L
same,Na,[3],140.6 meq/L
same,PL,[3],143 mg/dL
same,RALB,[3],2.6 g/dL
same,TBIL,[3],0.076 mg/dL
same,TC,[3],83.4 mg/dL
same,TG,[3],34.2 mg/dL
same,TP,[3],5.4 g/dL
same,gamma-GTP,[3],1 IU/L
same,TERMINAL_BW,[4],231.8 g
same,APTT,[4],16.9 s
same,Bas,[4],0%
same,Eos,[4],0.6%
same,Fbg,[4],247.6 mg/dL
same,Ht,[4],41.2%
same,Lym,[4],81.6%
same,MCH,[4],20.6 pg
same,MCHC,[4],32.3%
same,MCV,[4],63.9 fL
same,Mono,[4],2.6%
same,Neu,[4],14%
same,PT,[4],13.8 s
same,Plat,[4],116.6 x10_4/uL
same,Ret,[4],7.1%
same,WBC,[4],83.8 x10_2/uL
same,KIDNEY_L,[4],1 g
same,KIDNEY_R,[4],1 g
same,KIDNEY_TOTAL,[4],2.1 g
same,LIVER,[4],10.5 g
same,ALP,[4],2253 IU/L
same,ALT,[4],44.2 IU/L
same,AST,[4],76.8 IU/L
same,BUN,[4],13.2 mg/dL
same,CRE,[4],0.2 mg/dL
same,Ca,[4],10.9 mg/dL
same,DBIL,[4],0.028 mg/dL
same,GLC,[4],179 mg/dL
same,IP,[4],8 mg/dL
same,K,[4],4.1 meq/L
same,LDH,[4],93.8 IU/L
same,Na,[4],141.4 meq/L
same,PL,[4],159 mg/dL
same,RALB,[4],2.6 g/dL
same,TBIL,[4],0.062 mg/dL
same,TC,[4],80.2 mg/dL
same,TG,[4],115.2 mg/dL
same,TP,[4],5.5 g/dL
same,gamma-GTP,[4],1.2 IU/L
same,TERMINAL_BW,[5],215.5 g
same,APTT,[5],16.9 s
same,Bas,[5],0%
same,Eos,[5],0.8%
same,Fbg,[5],257.8 mg/dL
same,Hb,[5],14.1 g/dL
same,Ht,[5],43.3%
same,Lym,[5],77.8%
same,MCH,[5],21.2 pg
same,MCHC,[5],32.6%
same,MCV,[5],64.9 fL
same,Mono,[5],3.4%
same,Neu,[5],17.2%
same,PT,[5],13.5 s
same,Plat,[5],125.6 x10_4/uL
same,Ret,[5],8%
same,WBC,[5],69.8 x10_2/uL
same,KIDNEY_L,[5],1 g
same,KIDNEY_R,[5],0.9 g
same,KIDNEY_TOTAL,[5],1.9 g
same,LIVER,[5],10.1 g
same,ALP,[5],1835 IU/L
same,ALT,[5],42.8 IU/L
same,AST,[5],76.6 IU/L
same,BUN,[5],7.4 mg/dL
same,CRE,[5],0.1 mg/dL
same,Ca,[5],10.5 mg/dL
same,DBIL,[5],0.036 mg/dL
same,GLC,[5],188.8 mg/dL
same,IP,[5],9.6 mg/dL
same,K,[5],3.9 meq/L
same,LDH,[5],116.6 IU/L
same,Na,[5],142.2 meq/L
same,PL,[5],147 mg/dL
same,RALB,[5],2.5 g/dL
same,TBIL,[5],0.068 mg/dL
same,TC,[5],73.8 mg/dL
same,TG,[5],85.4 mg/dL
same,TP,[5],5.3 g/dL
same,gamma-GTP,[5],1 IU/L
same,TERMINAL_BW,[6],210.3 g
same,APTT,[6],17.8 s
same,Bas,[6],0%
same,Eos,[6],1%
same,Fbg,[6],276 mg/dL
same,Hb,[6],14.2 g/dL
same,Ht,[6],44%
same,Lym,[6],75.6%
same,MCH,[6],21.3 pg
same,MCHC,[6],32.2%
same,MCV,[6],66.2 fL
same,Mono,[6],2.8%
same,Neu,[6],20%
same,PT,[6],13.9 s
same,Plat,[6],125.1 x10_4/uL
same,Ret,[6],8.2%
same,WBC,[6],69.9 x10_2/uL
same,KIDNEY_L,[6],1 g
same,KIDNEY_R,[6],1 g
same,KIDNEY_TOTAL,[6],2 g
same,LIVER,[6],9.2 g
same,ALP,[6],1949.8 IU/L
same,ALT,[6],40.6 IU/L
same,AST,[6],76.2 IU/L
same,BUN,[6],6.8 mg/dL
same,CRE,[6],0.1 mg/dL
same,Ca,[6],10.4 mg/dL
same,DBIL,[6],0.042 mg/dL
same,GLC,[6],187.4 mg/dL
same,IP,[6],9.7 mg/dL
same,K,[6],4.1 meq/L
same,LDH,[6],103.8 IU/L
same,Na,[6],142.8 meq/L
same,PL,[6],134.6 mg/dL
same,RALB,[6],2.5 g/dL
same,TBIL,[6],0.064 mg/dL
same,TC,[6],71.4 mg/dL
same,TG,[6],53 mg/dL
same,TP,[6],5.2 g/dL
same,gamma-GTP,[6],1 IU/L
same,TERMINAL_BW,[7],208.4 g
same,APTT,[7],16.6 s
same,Bas,[7],0%
same,Eos,[7],1%
same,Fbg,[7],270.4 mg/dL
same,Hb,[7],14.1 g/dL
same,Ht,[7],43.6%
same,Lym,[7],71.2%
same,MCH,[7],21 pg
same,MCHC,[7],32.3%
same,MCV,[7],65.1 fL
same,Mono,[7],2%
same,Neu,[7],25.2%
same,PT,[7],13.9 s
same,Plat,[7],144.8 x10_4/uL
same,Ret,[7],8.1%
same,WBC,[7],72.8 x10_2/uL
same,KIDNEY_L,[7],1 g
same,KIDNEY_R,[7],1 g
same,KIDNEY_TOTAL,[7],2 g
same,LIVER,[7],9 g
same,ALP,[7],1702 IU/L
same,ALT,[7],32.4 IU/L
same,AST,[7],71.2 IU/L
same,BUN,[7],6.4 mg/dL
same,CRE,[7],0.1 mg/dL
same,Ca,[7],10.2 mg/dL
same,DBIL,[7],0.04 mg/dL
same,GLC,[7],194.6 mg/dL
same,IP,[7],9.8 mg/dL
same,K,[7],3.7 meq/L
same,LDH,[7],91 IU/L
same,Na,[7],142.6 meq/L
same,PL,[7],137.4 mg/dL
same,RALB,[7],2.5 g/dL
same,TBIL,[7],0.064 mg/dL
same,TC,[7],72.8 mg/dL
same,TG,[7],39 mg/dL
same,TP,[7],5.2 g/dL
same,gamma-GTP,[7],1 IU/L
same,TERMINAL_BW,[8],217.7 g
same,APTT,[8],19.3 s
same,Bas,[8],0.2%
same,Eos,[8],1%
same,Fbg,[8],278.8 mg/dL
same,Hb,[8],14.1 g/dL
same,Ht,[8],43.4%
same,Lym,[8],78.2%
same,MCH,[8],20.6 pg
same,MCHC,[8],32.5%
same,MCV,[8],63.5 fL
same,Mono,[8],2.6%
same,Neu,[8],17.4%
same,PT,[8],13.5 s
same,Plat,[8],144.2 x10_4/uL
same,Ret,[8],7.4%
same,WBC,[8],91.7 x10_2/uL
same,KIDNEY_L,[8],1 g
same,KIDNEY_R,[8],1 g
same,KIDNEY_TOTAL,[8],2 g
same,LIVER,[8],9.6 g
same,ALP,[8],1855 IU/L
same,ALT,[8],43 IU/L
same,AST,[8],69.8 IU/L
same,BUN,[8],15.4 mg/dL
same,CRE,[8],0.2 mg/dL
same,Ca,[8],10.8 mg/dL
same,DBIL,[8],0.046 mg/dL
same,GLC,[8],180.6 mg/dL
same,IP,[8],8.3 mg/dL
same,K,[8],4 meq/L
same,LDH,[8],92 IU/L
same,Na,[8],141.8 meq/L
same,PL,[8],168.4 mg/dL
same,RALB,[8],2.7 g/dL
same,TBIL,[8],0.056 mg/dL
same,TC,[8],98.2 mg/dL
same,TG,[8],96.2 mg/dL
same,TP,[8],5.7 g/dL
same,gamma-GTP,[8],1 IU/L
